The EC50 is the concentration needed to bring the measured effect to its halfway point.

The text below walks through data of US10858314B2, “Urea derivative or pharmacologically acceptable salt thereof” (KYORIN PHARMACEUTICAL CO., LTD., priority 2015, dated 2020).

For test [1], the target named is T1, human FPRL1 (Homo sapiens, UniProt P25090).
T1 construct: expressed in transfected cells; host or cells: HEK293 (JCRB9068, NIBIO), transient co-transfection of pCMV-script vectors with Lipofectamine 2000
T1 sequence (P25090 1-351): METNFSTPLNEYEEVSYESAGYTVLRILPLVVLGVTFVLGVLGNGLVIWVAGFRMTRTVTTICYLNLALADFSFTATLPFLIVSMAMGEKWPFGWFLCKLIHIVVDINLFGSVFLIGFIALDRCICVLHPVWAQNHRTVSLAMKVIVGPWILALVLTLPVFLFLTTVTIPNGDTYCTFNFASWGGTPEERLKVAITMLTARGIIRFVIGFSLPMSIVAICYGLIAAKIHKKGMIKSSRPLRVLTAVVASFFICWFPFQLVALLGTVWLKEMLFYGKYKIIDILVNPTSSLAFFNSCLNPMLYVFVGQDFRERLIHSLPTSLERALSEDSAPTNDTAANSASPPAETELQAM
Description: Measurement test of agonist activity on human FPRL1 (test of calcium mobilization in HEK293 cells transfected with human FPRL1 and Gα15). The following applies: read-out: Efficacy EC50. It counts as cell-based. From the text:
Measurement Test of Agonist Activity on Human FPRL1
(1-1) Construction of Human FPRL1 Expression Vector
Human FPRL (SEQ ID NO: 3) was amplified in a PCR reaction from cDNA derived from a monocytic leukemia cell line THP-1 (TIB-202, ATCC) as a template using a forward primer shown in SEQ ID NO: 1, a reverse primer shown in SEQ ID NO: 2, and KOD-plus-ver. 2 (KOD-211, TOYOBO CO., LTD.). […] 2 (LGK-201, TOYOBO CO., LTD.). The ligation product was transformed into DH5α (DNA-901, TOYOBO CO., LTD.), cultured on a 100 μg/mL kanamycin-containing LB medium, and purified with HiSpeed Plasmid Maxi Kit (12662, QIAGEN).
(1-2) Construction of Human Gα15 Expression Vector
2. The amplified PCR product and pCMV-script vector were digested with Hind III and XhoI, and the resultant digest was ligated with Ligation high ver. 2. The ligation product was transformed into DH5α, cultured on a 100 μg/mL kanamycin-containing LB medium, and purified with HiSpeed Plasmid Maxi Kit.
(2-1) Method for Culturing and Subculturing HEK293
HEK293 (JCRB9068, NIBIO) was cultured in an incubator at 5% CO2 and 37° C. using DMEM (11885-092, GIBCO) containing 10% FBS and 1× Penicillin-Streptomycin (15140-122, GIBCO).
(2-2) Introduction of Human FPRL1 and Gα15 Expression Vectors
The cells were inoculated in a Collagen Type 1 coated 6-well plate (4810-010, IWAKI) to 5×10^5 cells/2.5 mL/well and cultured overnight. On the next day, human FPRL1 and Gα15 expression vectors were introduced using Lipofectamine 2000 transfection reagent (11668-019, Life technologies). First, the human FPRL1 and Gα15 expression vectors were diluted with Opti-MEM I Reduced Serum Medium (31985-070, GIBCO) to 2 μg/250 μL/well and Lipofectamine 2000 transfection reagent was diluted with Opti-MEM I Reduced Serum Medium to be 4 μL/250 μL/well. The vectors and reagent were softly diffused, and incubated at room temperature for 5 minutes. The vector solution was mixed with Lipofectamine 2000 transfection reagent in equal amounts. In order to form a complex of the vectors and Lipofectamine 2000 transfection reagent, the mixture was incubated at room temperature for 20 minutes, and added at 500 μL/well to the medium of inoculated cells. The treated cells were cultured for 24 hours, inoculated in Poly-D-Lysine coated 96-well plate (356640, BD Biosciences) at a cell density of 7×10^4 cells/100 μL/well, and cultured for another 24 hours. The resultant cells were used in a measurement test of calcium mobilization in the cells.
(3) Evaluation of Agonist Activity on Human FPRL1 (Test of Calcium Mobilization in Cell)
An appropriate amount of each test compound was first weighed, and dissolved to 10^−2 M by addition of dimethyl sulfoxide (DMSO). […] The plate dispensed with compound solutions was set in Flexstation (Molecular Devices, LLC.) until measurement.
Subsequently, 10 mL of assay buffer and 100 μL of probenecid solution (dissolved by addition of 1 mL of assay buffer to a 250 mM stock) were sufficiently mixed and dissolved in Fluo-4 NW dye mix. The medium of cells inoculated on the previous day was removed, the dissolved Fluo-4 NW dye mix was added in an amount of 90 μL/well, and a reaction was caused in the dark at 37° C. for 45 minutes. The cells after the reaction and chips for addition of the compound were set in Flexstation, and variation in fluorescence intensity over time after addition of the compound was measured [amount of added compound=10 μL (final concentration 10^−5 M to 10^−12 M), excitation wavelength: 485 nm, measured wavelength: 525 nm, 1.5 sec×54 read]. A value was calculated by subtracting a base value during addition of DMSO from the maximum value of relative fluorescence unit, and analyzed. All the measurement data were analyzed with Prism 4 that was a data analysis tool.

Test [2] concerns neutrophilic infiltration in mouse lung. Description: Effect on lipopolysaccharide-induced neutrophilic infiltration in mouse lung (BAL fluid neutrophil count). In kind it is in vivo. The settings on record: oral, 30 minutes before LPS aerosol, BAL fluid neutrophils after 5 hours, mouse (BALB/c, male). On the procedure: Effect of Lipopolysaccharide Induction on Neutrophilic Infiltration in Mouse Lung
A compound to be tested was orally administrated to a mouse (BALB/c, male), and after 30 minutes, the mouse was placed in a plastic container. Lipopolysaccharide (0.3 mg/mL) dissolved in physiological saline was aerosolized with an ultrasonic wave nebulizer (NE-U17, OMRON Corporation), and exposed to the mouse for 10 minutes. After 5 hours, the anesthetized mouse was sacrificed by exsanguination. A cannula was inserted in the respiratory tract and bronchoalveolar lavage (BAL) with 1 mL of […] liquid containing 0.4% sodium citrate was carried out. This operation was repeated 3 times, to obtain a BAL fluid. The BAL fluid was centrifuged at 4° C. and ×200 g for 5 minutes, and the pellet was suspended in a physiological saline containing 0.1% BSA. The number of white blood cells was counted using Turks solution with a microscope, and the total white blood cell count was calculated. The white blood cells were fixed on a glass slide using Cytospin 3 (Thermo BioAnalysis Japan K. K.). The cells were stained with Diff-Quik (SYSMEX INTERNATIONAL REAGENTS CO., LTD.), and the number thereof was counted with a microscope, and the neutrophil ratio was calculated. The neutrophil ratio was multiplied by the total white blood cell count to calculate the total neutrophil count. An effect of the compound to be tested represents a percentage (%) of suppression ratio relative to the neutrophil count in a control.

`COc1ccc(C[C@H](NC(=O)Nc2ccc(Cl)cc2)c2nnn(CCO)n2)cc1` [Example 1-1, (−)-(S)-1-(4-Chlorophenyl)-3-{1-[2-(2-hydroxyethyl)-2H-tetrazol-5-yl]-2-(4-methoxyphenyl)ethyl}urea]: the EC50 in test [1] came to 250 pM. Also, the “Suppression Ratio (%)” value in test [2] (dose 1 mg/kg) amounted to 95.7%.
As for `N#Cc1ccc(C[C@H](NC(=O)Nc2ccc(Cl)cc2)c2nnn(CCO)n2)cc1` [Example 1-5, (S)-1-(4-chlorophenyl)-3-{2-(4-cyanophenyl)-1-[2-(2-hydroxyethyl)-2H-tetrazol-5-yl]ethyl}urea], in test [1], the EC50 amounted to 570 pM.
Turning to `O=C(Nc1ccc(Cl)cc1)N[C@@H](Cc1ccc(Cl)cc1)c1nnn(CCO)n1` [Example 1-7, (−)-(S)-1-(4-chlorophenyl)-3-{2-(4-chlorophenyl)-1-[2-(2-hydroxyethyl)-2H-tetrazol-5-yl]ethyl}urea], the EC50 in test [1] worked out at 2700 pM.
On the same count and under the same terms, the value for `O=C(Nc1ccc(F)cc1)N[C@@H](Cc1ccc(Cl)cc1)c1nnn(CCO)n1` [Example 1-8, (−)-(S)-1-{2-(4-chlorophenyl)-1-[2-(2-hydroxyethyl)-2H-tetrazol-5-yl]ethyl}-3-(4-fluorophenyl)urea] was 1370 pM.
Same read-out and setting: the value for `CCc1ccc(C[C@H](NC(=O)Nc2ccc(Cl)cc2)c2nnn(CCO)n2)cc1` [Example 1-11, (S)-1-(4-chlorophenyl)-3-{2-(4-ethylphenyl)-1-[2-(2-hydroxyethyl)-2H-tetrazol-5-yl]ethyl}urea] was 220 pM.
With `CCc1ccc(C[C@H](NC(=O)Nc2ccc(Cl)cc2)c2noc(N(C)CCO)n2)cc1` [Example 1-15, (S)-1-(4-chlorophenyl)-3-(2-(4-ethylphenyl)-1-{5-[(2-hydroxyethyl)(methyl)amino]-1,2,4-oxadiazol-3-yl}ethyl)urea], in test [1], the concentration giving a half-maximal response (EC50) was 630 pM. The “Suppression Ratio (%)” value in test [2] (dose 3 mg/kg) was determined as 95.7%.
On to `COc1ccc(C[C@H](NC(=O)Nc2ccc(Cl)cc2)c2nnc(CCO)o2)cc1` [Example 1-20, (S)-1-(4-chlorophenyl)-3-{1-[5-(2-hydroxyethyl)-1,3,4-oxadiazol-2-yl]-2-(4-methoxyphenyl)ethyl}urea], for which the EC50 in test [1] stood at 170 pM. The “Suppression Ratio (%)” value in test [2] (dose 3 mg/kg) is 94%.
Regarding `CCc1ccc(C[C@H](NC(=O)Nc2ccc(Cl)cc2)c2nnc(CCO)o2)cc1` [Example 1-73, (−)-(S)-1-(4-chlorophenyl)-3-(2-(4-ethylphenyl)-1-(5-(3-hydroxyethyl)-1,3,4-oxadiazol-2-yl)ethyl)urea], in test [1], the EC50 is 730 pM.
On to `COc1ccc(CC(Cc2nnc(O)o2)NC(=O)Nc2ccc(Cl)cc2)cc1` (centres unmarked) [Example 1-75, 1-(4-chlorophenyl)-3-(1-(5-hydroxy-1,3,4-oxadiazol-2-yl)-3-(4-methoxyphenyl)propan-2-yl)urea], for which, in test [1], the EC50 stood at 1410 pM.
Still for that read-out and setting: in the case of `COc1ccc(CC(NC(=O)Nc2ccc(Cl)cc2)/C(N)=N/O)cc1` (centres unmarked) [Example 4] it was 340 pM.
On the same count and under the same terms, the value for `CNC(=O)c1ncoc1[C@H](Cc1ccc(OC)cc1)NC(=O)Nc1ccc(Cl)cc1` [Example 14-3, (S)-5-(1-(3-(4-chlorophenyl)ureido)-2-(4-methoxyphenyl)ethyl)-N-methyl-oxazole-4-carboxamide] was 220 pM; that for `COc1ccc(C[C@H](NC(=O)Nc2ccc(Cl)cc2)c2ocnc2C(=O)N(C)C)cc1` [Example 14-4, (S)-5-(1-(3-(4-chlorophenyl)ureido)-2-(4-methoxyphenyl)-ethyl)-N,N-dimethyloxazole-4-carboxamide] was 300 pM; that for `CN(CCO)c1nc([C@H](Cc2ccc(Cl)cc2)NC(=O)Nc2ccc(Cl)cc2)no1` [Example 18-11, (S)-1-(4-chloro-phenyl)-3-(2-(4-chlorophenyl)-1-(5-((2-hydroxy-ethyl)(methyl)-amino)-1,2,4-oxadiazol-3-yl)ethyl)urea] was 300 pM.
With `CCc1ccc(C[C@H](NC(=O)Nc2ccc(Cl)cc2)/C(N)=N/OCCO)cc1` [Example 19-1, (+)-(S,Z)-2-[3-(4-Chlorophenyl)ureido]-3-(4-ethylphenyl)-N′-(2-hydroxyethoxy)propanimidamide], the concentration giving a half-maximal response (EC50) in test [1] is 560 pM. Besides, the “Suppression Ratio (%)” value in test [2] (dose 3 mg/kg) was found to be 96.9%.
With `N/C(=N\OCCO)[C@H](Cc1ccc(Cl)cc1)NC(=O)Nc1ccc(Cl)cc1` [Example 22-2, (+)-(S,Z)-3-(4-chlorophenyl)-2-(3-(4-chloro-phenyl)ureido)-N′-(2-hydroxy-ethoxy)propan-imidamide], the EC50 in test [1] worked out at 200 pM.
On the same count and under the same terms, in the case of `COc1ccc(C[C@H](NC(=O)Nc2ccc(Cl)cc2)/C(N)=N/C(=O)CCO)cc1` [Example 26-2, (S)-N-{2-[3-(4-chlorophenyl)-ureido]-1-imino-3-(4-methoxy-phenyl)propyl}-3-hydroxypropanamide] it was 150 pM.
For the molecule `N/C(=N\C(=O)CCO)[C@H](Cc1ccc(Cl)cc1)NC(=O)Nc1ccc(Cl)cc1` [Example 26-5 (B), (S)-N-{3-(4-chlorophenyl)-2-[3-(4-chloro-phenyl)ureido]-1-iminopropyl}-3-hydroxypropan-amide], the EC50 in test [1] was found to be 660 pM. The “Suppression Ratio (%)” value in test [2] (dose 3 mg/kg) amounted to 86%.
In the case of `COc1ccc(CC(NC(=O)Nc2ccc(Cl)cc2)/C(N)=N/C(=O)CO)cc1` (centres unmarked) [Example 26-11, N-{2-[3-(4-chlorophenyl)-ureido]-1-imino-3-(4-methoxy-phenyl)propyl}-2-hydroxyacetamide], the EC50 in test [1] is 410 pM.
Same read-out and setting: the value for `COc1ccc(CC(CO)NC(=O)Nc2ccc(Br)cc2)cc1` (centres unmarked) [Example 31-25, 1-(4-bromo-phenyl)-3-(1-hydroxy-3-(4-methoxyphenyl)-propan-2-yl)urea] was 8450 pM.
For `COc1ccc(C[C@H](CO)NC(=O)Nc2ccc(Cl)cc2)cc1` [Example 31-29], the EC50 in test [1] stood at 4120 pM. In test [2] (dose 10 mg/kg), the “Suppression Ratio (%)” value is given as 95.5%.
